In patent US20070128217A1 (priority 2003, published 2007):

Assays:
[1] = test system: antibodies in sera from SARS patients (sera 1a, 1b, 2, 6, 37, 62, London, SARS-yellow, SARS-green); format: binding, human; set-up: Binding of serum 6 to linear peptides of protein X1 of SARS-CoV Urbani / Binding of serum 37 to linear peptides of protein X1 of SARS-CoV Urbani / Binding of serum 6 to looped/cyclic peptide (PEPSCAN-ELISA) / Binding of serum 37 to looped/cyclic peptide (PEPSCAN-ELISA) / Binding of serum 37 to looped/cyclic peptides of protein X1 of SARS-CoV Urbani / Binding of serum 6 to linear peptides of protein X2 / Binding of serum 37 to linear peptides of protein X2 / Binding of serum 37 to looped/cyclic peptides of protein X2 of SARS-CoV Urbani / Binding of serum 6 to linear peptides of protein M of SARS-CoV Urbani / Binding of serum 37 to linear peptides of protein M of SARS-CoV Urbani / Binding of serum 6 to looped/cyclic peptides of protein M of SARS-CoV Urbani / Binding of serum 37 to looped/cyclic peptides of protein M of SARS-CoV Urbani / Binding of serum 6 to linear peptides of protein X3 of SARS-CoV Urbani / Binding of serum 37 to linear peptides of protein X3 of SARS-CoV Urbani / Binding of serum 37 to looped/cyclic peptides of protein X3 of SARS-CoV Urbani / Binding of serum 6 to linear peptides of protein X4 of SARS-CoV Urbani / Binding of serum 37 to linear peptides of protein X4 of SARS-CoV Urbani / Binding of serum 37 to looped/cyclic peptides of protein X4 of SARS-CoV Urbani / Binding of serum 6 to linear peptides of protein X5 of SARS-CoV Urbani / Binding of serum 37 to linear peptides of protein X5 of SARS-CoV Urbani / Binding of serum 37 to looped/cyclic peptides of protein X5 of SARS-CoV Urbani / Binding of serum 6 to linear peptides of protein N of SARS-CoV Urbani / Binding of serum 37 to linear peptides of protein N of SARS-CoV Urbani / Binding of serum 6 to linear peptide (PEPSCAN-ELISA) / Binding of serum 1a to looped/cyclic peptides of protein N of SARS-CoV Urbani / Binding of serum 1b to looped/cyclic peptides of protein N of SARS-CoV Urbani / Binding of serum 2 to looped/cyclic peptides of protein N of SARS-CoV Urbani / Binding of serum 6 to looped/cyclic peptides of protein N of SARS-CoV Urbani / Binding of serum 37 to looped/cyclic peptides of protein N of SARS-CoV Urbani / Binding of serum 62 to looped/cyclic peptides of protein N of SARS-CoV Urbani / Binding of serum London to looped/cyclic peptides of protein N of SARS-CoV Urbani / Binding of serum SARS-green to looped/cyclic peptides of protein N of SARS-CoV Urbani: unit not given here
[2] = test system: rabbit serum obtained by immunizing a rabbit with the SARS-CoV strain Frankfurt 1; format: binding; set-up: Binding of a rabbit serum to linear peptides / Binding of a rabbit serum to looped peptides / Rabbit serum linear peptides / Rabbit serum looped peptides / Binding of a rabbit serum to linear peptides of protein N of SARS-CoV Urbani (Rabbit serum linear peptides) / Binding of a rabbit serum to looped/cyclic peptides of protein N of SARS-CoV Urbani (Rabbit serum looped peptides): unit not given here
[3] = test system: control sera (pooled serum of ten healthy LUMC hospital workers; commercial negative donor pooled serum from the Dutch bloodbank); format: binding, human; set-up: Binding of Control serum LUMC to linear peptides / Binding of Control serum Blood-bank to linear peptides / Binding of Control serum LUMC to looped peptides / Binding of Control Serum Blood-Bank to Looped peptides / Binding of Control serum LUMC to linear peptides of the protein M of SARS-CoV Urbani / Binding of Control serum Blood-bank to linear peptides of the protein M of SARS-CoV Urbani / Binding of Control serum LUMC to looped peptides of the protein M of SARS-CoV Urbani / Binding of Control Serum Blood-Bank to Looped peptides of the protein M of SARS-CoV Urbani: unit not given here

## GLMWLSYFVASFRLF
[1]
  Binding of serum 1a to linear peptides of protein M of SARS-CoV Urbani: 0.7
  Binding of serum 1a to looped/cyclic peptides of protein M of SARS-CoV Urbani: 0.6
  Binding of serum 1b to linear peptides of protein M of SARS-CoV Urbani: 0.4
  Binding of serum 1b to looped/cyclic peptides of protein M of SARS-CoV Urbani: 0.2
  Binding of serum 2 to linear peptides of protein M of SARS-CoV Urbani: 0.4
  Binding of serum 2 to looped/cyclic peptides of protein M of SARS-CoV Urbani: 0.6
  Binding of serum 6 to linear peptides of protein M of SARS-CoV Urbani: 0.6
  Binding of serum 6 to looped/cyclic peptides of protein M of SARS-CoV Urbani: 0.8
  Binding of serum 37 to linear peptides of protein M of SARS-CoV Urbani: 0.5
  Binding of serum 37 to looped/cyclic peptides of protein M of SARS-CoV Urbani: 0.5
  Binding of serum 62 to linear peptides of protein M of SARS-CoV Urbani: 0.6
  Binding of serum 62 to looped/cyclic peptides of protein M of SARS-CoV Urbani: 0.6
  Binding of serum London to linear peptides of protein M of SARS-CoV Urbani: 0.4
  Binding of serum London to looped/cyclic peptides of protein M of SARS-CoV Urbani: 0.3
  Binding of serum SARS-green to linear peptides of protein M of SARS-CoV Urbani: 0.3
  Binding of serum SARS-green to looped/cyclic peptides of protein M of SARS-CoV Urbani: 0.3
  Binding of serum SARS-yellow to linear peptides of protein M of SARS-CoV Urbani: 0.1
  Binding of serum SARS-yellow to looped/cyclic peptides of protein M of SARS-CoV Urbani: 0.7
[2]
  Rabbit serum linear peptides: 0.2
  Rabbit serum looped peptides: 0.2
[3]
  Binding of Control Serum Blood-Bank to Looped peptides of the protein M of SARS-CoV Urbani: 0.7
  Binding of Control serum Blood-bank to linear peptides of the protein M of SARS-CoV Urbani: 0.6
  Binding of Control serum LUMC to linear peptides of the protein M of SARS-CoV Urbani: 0.2
  Binding of Control serum LUMC to looped peptides of the protein M of SARS-CoV Urbani: 0.6

## GNTYSTAWLCALGKV
[1]
  Binding of serum 1a to linear peptides of protein X5 of SARS-CoV Urbani: 0.8
  Binding of serum 1a to looped/cyclic peptides of protein X5 of SARS-CoV Urbani: 0.4
  Binding of serum 1b to linear peptides of protein X5 of SARS-CoV Urbani: 0.6
  Binding of serum 1b to looped/cyclic peptides of protein X5 of SARS-CoV Urbani: 0.2
  Binding of serum 2 to linear peptides of protein X5 of SARS-CoV Urbani: 0.9
  Binding of serum 2 to looped/cyclic peptides of protein X5 of SARS-CoV Urbani: 0.5
  Binding of serum 6 to linear peptides of protein X5 of SARS-CoV Urbani: 0.6
  Binding of serum 6 to looped/cyclic peptides of protein X5 of SARS-CoV Urbani: 0.3
  Binding of serum 37 to linear peptides of protein X5 of SARS-CoV Urbani: 0.7
  Binding of serum 37 to looped/cyclic peptides of protein X5 of SARS-CoV Urbani: 0.5
  Binding of serum 62 to linear peptides of protein X5 of SARS-CoV Urbani: 0.8
  Binding of serum 62 to looped/cyclic peptides of protein X5 of SARS-CoV Urbani: 0.7
  Binding of serum London to linear peptides of protein X5 of SARS-CoV Urbani: 0.7
  Binding of serum London to looped/cyclic peptides of protein X5 of SARS-CoV Urbani: 0.2
  Binding of serum SARS-green to linear peptides of protein X5 of SARS-CoV Urbani: 0.6
  Binding of serum SARS-green to looped/cyclic peptides of protein X5 of SARS-CoV Urbani: 0.3
  Binding of serum SARS-yellow to linear peptides of protein X5 of SARS-CoV Urbani: 0.4
  Binding of serum SARS-yellow to looped/cyclic peptides of protein X5 of SARS-CoV Urbani: 0.5
[2]
  Rabbit serum linear peptides: 0.9
  Rabbit serum looped peptides: 0.6
[3]
  Binding of Control Serum Blood-Bank to Looped peptides: 0.4
  Binding of Control serum Blood-bank to linear peptides: 0.9
  Binding of Control serum LUMC to linear peptides: 0.5
  Binding of Control serum LUMC to looped peptides: 0.6

## GTDSGFAAYNRYRIG
[1]
  Binding of serum 1a to linear peptides of protein M of SARS-CoV Urbani: 0.6
  Binding of serum 1a to looped/cyclic peptides of protein M of SARS-CoV Urbani: 0.8
  Binding of serum 1b to linear peptides of protein M of SARS-CoV Urbani: 0.4
  Binding of serum 1b to looped/cyclic peptides of protein M of SARS-CoV Urbani: 0.5
  Binding of serum 2 to linear peptides of protein M of SARS-CoV Urbani: 0.4
  Binding of serum 2 to looped/cyclic peptides of protein M of SARS-CoV Urbani: 0.6
  Binding of serum 6 to linear peptides of protein M of SARS-CoV Urbani: 0.7
  Binding of serum 6 to looped/cyclic peptides of protein M of SARS-CoV Urbani: 0.8
  Binding of serum 37 to linear peptides of protein M of SARS-CoV Urbani: 0.6
  Binding of serum 37 to looped/cyclic peptides of protein M of SARS-CoV Urbani: 0.7
  Binding of serum 62 to linear peptides of protein M of SARS-CoV Urbani: 0.5
  Binding of serum 62 to looped/cyclic peptides of protein M of SARS-CoV Urbani: 0.6
  Binding of serum London to linear peptides of protein M of SARS-CoV Urbani: 0.3
  Binding of serum London to looped/cyclic peptides of protein M of SARS-CoV Urbani: 0.3
  Binding of serum SARS-green to linear peptides of protein M of SARS-CoV Urbani: 0.4
  Binding of serum SARS-green to looped/cyclic peptides of protein M of SARS-CoV Urbani: 0.4
  Binding of serum SARS-yellow to linear peptides of protein M of SARS-CoV Urbani: 0.2
  Binding of serum SARS-yellow to looped/cyclic peptides of protein M of SARS-CoV Urbani: 0.9
[2]
  Rabbit serum linear peptides: 0.2
  Rabbit serum looped peptides: 0.4
[3]
  Binding of Control Serum Blood-Bank to Looped peptides of the protein M of SARS-CoV Urbani: 0.6
  Binding of Control serum Blood-bank to linear peptides of the protein M of SARS-CoV Urbani: 0.7
  Binding of Control serum LUMC to linear peptides of the protein M of SARS-CoV Urbani: 0.5
  Binding of Control serum LUMC to looped peptides of the protein M of SARS-CoV Urbani: 0.7

## HGYFTEVYYQLESTQ
[1]
  Binding of serum 1a to linear peptides of protein X1 of SARS-CoV Urbani: 0.6
  Binding of serum 1a to looped/cyclic peptides of protein X1 of SARS-CoV Urbani: 0.5
  Binding of serum 1b to linear peptides of protein X1 of SARS-CoV Urbani: 0.4
  Binding of serum 1b to looped/cyclic peptides of protein X1 of SARS-CoV Urbani: 0.4
  Binding of serum 2 to linear peptides of protein X1 of SARS-CoV Urbani: 0.4
  Binding of serum 2 to looped/cyclic peptides of protein X1 of SARS-CoV Urbani: 0.4
  Binding of serum 6 to linear peptides of protein X1 of SARS-CoV Urbani: 0.3
  Binding of serum 6 to looped/cyclic peptides of protein X1 of SARS-CoV Urbani: 0.3
  Binding of serum 37 to linear peptides of protein X1 of SARS-CoV Urbani: 0.4
  Binding of serum 37 to looped/cyclic peptides of protein X1 of SARS-CoV Urbani: 0.5
  Binding of serum 62 to linear peptides of protein X1 of SARS-CoV Urbani: 0.4
  Binding of serum 62 to looped/cyclic peptides of protein X1 of SARS-CoV Urbani: 0.5
  Binding of serum London to linear peptides of protein X1 of SARS-CoV Urbani: 0.2
  Binding of serum London to looped/cyclic peptides of protein X1 of SARS-CoV Urbani: 0.2
  Binding of serum SARS-green to linear peptides of protein X1 of SARS-CoV Urbani: 0.2
  Binding of serum SARS-green to looped/cyclic peptides of protein X1 of SARS-CoV Urbani: 0.3
  Binding of serum SARS-yellow to linear peptides of protein X1 of SARS-CoV Urbani: 0.0
  Binding of serum SARS-yellow to looped/cyclic peptides of protein X1 of SARS-CoV Urbani: 0.4
[2]
  Binding of a rabbit serum to linear peptides: 0.1
  Binding of a rabbit serum to looped peptides: 0.5
[3]
  Binding of Control Serum Blood-Bank to Looped peptides: 0.5
  Binding of Control serum Blood-bank to linear peptides: 0.4
  Binding of Control serum LUMC to linear peptides: 0.3
  Binding of Control serum LUMC to looped peptides: 0.5
